Experimental data reported in paper PMC7658267, “Effects of CYP46A1 Inhibition on Long-Term-Depression in Hippocampal Slices ex vivo and 24S-Hydroxycholesterol Levels in Mice in vivo” (Frontiers in Molecular Neuroscience, 2020).

Columns and labels:
CYP46A1 [1] = biological target: T1, CYP46A1 (Homo sapiens, UniProt Q9Y6A2); assay: recombinant human CYP46A1 microsomes, cholesterol to 24-hydroxycholesterol, LC-MS/MS ([…] with testosterone as substrate); type: biochemical
CYP46A1 [2] = biological target: T1, CYP46A1; assay: turnover to 24-hydroxycholesterol by human CYP46A1 microsomes, LC-MS/MS; type: biochemical

T1 sequence (Q9Y6A2 whole entry): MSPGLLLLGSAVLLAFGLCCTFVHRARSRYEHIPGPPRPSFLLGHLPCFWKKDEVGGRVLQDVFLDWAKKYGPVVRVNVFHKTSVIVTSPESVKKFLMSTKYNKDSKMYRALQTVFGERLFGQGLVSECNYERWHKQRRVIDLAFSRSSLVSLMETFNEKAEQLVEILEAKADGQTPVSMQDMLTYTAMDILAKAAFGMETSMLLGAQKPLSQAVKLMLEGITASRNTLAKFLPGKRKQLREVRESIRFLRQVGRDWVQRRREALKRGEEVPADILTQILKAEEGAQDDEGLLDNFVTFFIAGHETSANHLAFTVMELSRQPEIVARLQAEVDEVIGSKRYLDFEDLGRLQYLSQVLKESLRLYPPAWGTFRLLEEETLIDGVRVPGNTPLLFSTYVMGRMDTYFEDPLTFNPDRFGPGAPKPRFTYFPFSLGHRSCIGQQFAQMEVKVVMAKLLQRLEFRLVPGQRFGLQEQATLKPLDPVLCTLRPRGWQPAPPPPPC

SMILES	IC50 (CYP46A1 [1]) [µM]	turnover to 24-hydroxycholesterol by human CYP46A1 microsomes, LC-MS/MS (CYP46A1 [2])
C[C@@H](c1ncncc1F)[C@](O)(Cn1cncn1)c1ccc(F)cc1F [Voriconazole]	12.2	
CC(C)CCC[C@@H](C)[C@H]1CC[C@H]2[C@@H]3CC=C4C[C@@H](O)CC[C@]4(C)[C@H]3CC[C@]12C [cholesterol]		We also developed an in vitro assay using cholesterol as a substrate.
